Measurements reported in patent US20070293445A1, “Stable Elsamitrucin Salts Suitable for Pharmaceutical Formulations” (SPECTRUM PHARMACEUTICALS, INC., priority 2006, published 2007).
Like-named read-outs stand apart in the source and are kept apart here.

How the values were obtained:
[1] = system: SK-MES-1 human non-small cell lung carcinoma; assay: MTT cell growth inhibition, SK-MES-1; type: cell-based; details: 5-10 days incubation
Description: (§1) Elsamitrucin and Elsamitrucin tosylate were tested in vitro using: B16F10 (murine […]), HCT 116 (human colon), HT29 (human colon) and SK-MES-1 (human non-small cell lung carcinoma ). Cell growth inhibition was evaluated in 96-well micro-culture plates with a semi-automated MTT (3-(4,5-dimethylthiazol-2-yl)-2,5-diphenyltetrazolium bromide) assay.
(§2) SK-MES-1 human non-small cell lung carcinoma, B16F10 murine melanoma cells, HCT 116 and HT29 human colon carcinomas (collectively “test cell cultures”) were maintained in buffered RPMI 1640 supplemented with fetal calf serum, antibiotics and other appropriate growth factors such as glutamine. Test cells (1,500-2,000 cells/well) were seeded in a 96-well micro culture plate with a total volume of 100 μL/well. After overnight incubation in a humidified incubator at 37° C. with 5% CO2 and 95% air, elsamitrucin solutions were diluted to various concentrations with RPMI 1640, were added to each well in a 100 μL volume. The elsamitrucin base and the elsamitrucin tosylate solutions (elsamitrucin solutions) were prepared and stored in a −20° C. freezer. The solutions were thawed not more than 10 times for the entire experiment.
(§3) Cell culture plates seeded with test cells and various concentrations of elsamitrucin solutions were placed in a humidified incubator at 37° C., with CO2 and 95% air for 5-10 days. […]

[2] = system: B16F10 murine melanoma cells; assay: MTT cell growth inhibition, B16F10; type: cell-based; details: 5-10 days incubation
Description: as §1, §2, §3

[3] = system: HCT 116 human colon carcinoma; assay: MTT cell growth inhibition, HCT 116; type: cell-based; details: 5-10 days incubation
Description: as §1, §2, §3

[4] = system: HT29 human colon carcinoma; assay: MTT cell growth inhibition, HT29; type: cell-based; details: 5-10 days incubation
Description: as §1, §2, §3

MCF7 = details: ER+ MCF7; cited from earlier work
MDA-MB-231 = details: ER− MDA-MB-231; cited from earlier work
MCF7DX = MCF7DX subline; cited from earlier work
[5] = system: clinical breast cancer specimens from untreated patients; details: cited from earlier work
[6] = system: patients with refractory/relapsed non-Hodgkin's lymphoma; details: cited from earlier work

Substance “benzo(h)(1)benzopyrano(5,4,3-cde)(1)ebnzopyran-5,12-dione,10((2-O-(2-amino-2,6-dideoxy-3-O-methyl-alpha-D-galactopyranosyl)-6-deoxy-3-C-methyl-beta-D-galactopyranosyl)oxy)-6-hydroxy-1-methyl [Elsamitrucin]” has an IC50 [1] of 42 nM, an IC50 [2] of 24 nM and an IC50 [3] of 74 nM. The IC50 [4] was 95 nM, the IC50 antiproliferative effect (MCF7) was 0.25 micrograms/ml and the IC50 antiproliferative effect (MDA-MB-231) was 0.21 micrograms/ml. For the same substance, the “cross-resistance to doxorubicin (DX)” value (MCF7DX) was “cross-resistant to DX”, the minimal inhibiting concentration ([5]; ER+ tumors) was 0.1 micrograms/ml and the minimal inhibiting concentration ([5]; ER− tumors) was 3.5 micrograms/ml. The elsamitrucin-associated toxicity [6] was “relatively mild” and the myelosuppression [6] was “did not include myelosuppression”.
